From ChEMBL document CHEMBL5465560, “Selectivity Literature for EUbOPEN Chemogenomic Library” (2024)

Experiments:
[1] = target: T1, Serine/threonine-protein kinase ULK1 (Homo sapiens) (UniProt O75385); assay: Selectivity interaction (KinomeScan (DiscoverX)) EUB0000229b ULK1; details: at 10 µM
T1 sequence (whole entry): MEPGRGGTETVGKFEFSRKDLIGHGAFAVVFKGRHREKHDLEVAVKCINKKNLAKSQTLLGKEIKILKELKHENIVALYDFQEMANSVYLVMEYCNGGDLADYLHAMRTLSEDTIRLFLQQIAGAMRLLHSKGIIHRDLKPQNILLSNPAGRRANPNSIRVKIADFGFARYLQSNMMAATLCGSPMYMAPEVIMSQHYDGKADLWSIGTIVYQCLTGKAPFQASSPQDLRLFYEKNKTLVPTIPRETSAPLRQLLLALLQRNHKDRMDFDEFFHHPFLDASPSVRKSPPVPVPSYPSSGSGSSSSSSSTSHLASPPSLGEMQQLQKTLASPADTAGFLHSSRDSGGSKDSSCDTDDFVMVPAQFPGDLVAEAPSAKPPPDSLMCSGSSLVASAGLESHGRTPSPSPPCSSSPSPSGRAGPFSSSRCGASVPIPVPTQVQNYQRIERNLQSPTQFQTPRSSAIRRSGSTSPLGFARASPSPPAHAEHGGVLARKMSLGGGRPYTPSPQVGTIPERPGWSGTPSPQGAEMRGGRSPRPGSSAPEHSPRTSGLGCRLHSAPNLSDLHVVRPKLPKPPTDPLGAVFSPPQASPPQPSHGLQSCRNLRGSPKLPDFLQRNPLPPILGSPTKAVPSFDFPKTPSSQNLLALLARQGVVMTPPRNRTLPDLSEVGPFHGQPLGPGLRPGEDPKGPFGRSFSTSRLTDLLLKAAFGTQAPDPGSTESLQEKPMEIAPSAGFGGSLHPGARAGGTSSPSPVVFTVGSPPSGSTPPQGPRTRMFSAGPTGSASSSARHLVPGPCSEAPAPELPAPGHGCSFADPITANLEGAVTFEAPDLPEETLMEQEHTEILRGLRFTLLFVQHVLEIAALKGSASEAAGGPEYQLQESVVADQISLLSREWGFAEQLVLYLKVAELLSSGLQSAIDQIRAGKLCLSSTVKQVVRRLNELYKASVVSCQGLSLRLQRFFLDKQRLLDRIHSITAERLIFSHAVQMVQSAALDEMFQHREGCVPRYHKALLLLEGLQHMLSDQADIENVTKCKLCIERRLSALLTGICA

[2] = target: Dual specificity mitogen-activated protein kinase kinase 2 (Homo sapiens) (UniProt P36507); assay: Selectivity interaction (LanthaScreen Eu Kinase Binding Assay) EUB0001632a MAP2K2; details: at 10 µM
[3] = target: T2, Serine/threonine-protein kinase DCLK3 (Homo sapiens) (UniProt Q9C098); assay: Selectivity interaction (KinomeScan (DiscoverX)) EUB0000666a DCLK3; details: at 10 µM
T2 sequence (whole entry): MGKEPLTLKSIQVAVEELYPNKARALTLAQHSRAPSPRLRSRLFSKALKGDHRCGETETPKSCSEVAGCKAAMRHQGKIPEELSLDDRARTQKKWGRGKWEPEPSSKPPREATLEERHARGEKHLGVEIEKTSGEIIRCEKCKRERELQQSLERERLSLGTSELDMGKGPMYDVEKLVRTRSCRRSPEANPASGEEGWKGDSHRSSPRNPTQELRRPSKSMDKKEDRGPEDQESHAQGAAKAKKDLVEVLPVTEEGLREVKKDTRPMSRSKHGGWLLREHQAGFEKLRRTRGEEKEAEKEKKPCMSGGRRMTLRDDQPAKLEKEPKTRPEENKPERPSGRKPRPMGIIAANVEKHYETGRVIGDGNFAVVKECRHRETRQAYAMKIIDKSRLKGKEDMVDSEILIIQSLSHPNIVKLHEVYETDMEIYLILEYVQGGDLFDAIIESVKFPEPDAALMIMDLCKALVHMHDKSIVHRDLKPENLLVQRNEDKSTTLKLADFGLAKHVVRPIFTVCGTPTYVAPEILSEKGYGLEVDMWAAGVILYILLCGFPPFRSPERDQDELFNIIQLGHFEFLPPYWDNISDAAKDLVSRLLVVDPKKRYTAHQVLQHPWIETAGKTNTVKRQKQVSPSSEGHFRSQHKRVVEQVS

[4] = target: Tyrosine-protein kinase Lyn (Homo sapiens, UniProt P07948); details: at 10 µM
[5] = target: Dual specificity tyrosine-phosphorylation-regulated kinase 1A (Homo sapiens, UniProt Q13627); assay: Selectivity interaction (Kinase screening (Nanosyn)) EUB0000604a DYRK1A
[6] = target: Mast/stem cell growth factor receptor Kit (Homo sapiens, UniProt P10721); assay: Selectivity interaction (KinomeScan (DiscoverX)) EUB0001049a KIT; details: at 1 µM
[7] = tested on: Tyrosine-protein kinase ABL1 (Homo sapiens), P00519 [M351T]; assay: (§1) Selectivity interaction (ProQinase) EUB0000171b ABL1
[8] = tested on: Tyrosine-protein kinase ABL1 (Homo sapiens), P00519 [G250E]; assay: as §1
[9] = target: Tyrosine-protein kinase ABL1 (Homo sapiens, UniProt P00519); assay: as §1
[10] = tested on: Tyrosine-protein kinase ABL1 (Homo sapiens), P00519 [H396P]; assay: as §1
[11] = tested on: Tyrosine-protein kinase ABL1 (Homo sapiens), P00519 [T315I]; assay: as §1
[12] = tested on: Tyrosine-protein kinase ABL1 (Homo sapiens), P00519 [Y253F]; assay: as §1
[13] = tested on: Tyrosine-protein kinase ABL1 (Homo sapiens), P00519 [E255K]; assay: as §1
[14] = tested on: Tyrosine-protein kinase ABL1 (Homo sapiens), P00519 [Q252H]; assay: as §1
[15] = tested on: Tyrosine-protein kinase ABL1 (Homo sapiens), P00519 [F317I]; assay: as §1
[16] = target: T3, cAMP-dependent protein kinase catalytic subunit PRKX (Homo sapiens) (UniProt P51817); details: at 10 µM
T3 sequence (whole entry): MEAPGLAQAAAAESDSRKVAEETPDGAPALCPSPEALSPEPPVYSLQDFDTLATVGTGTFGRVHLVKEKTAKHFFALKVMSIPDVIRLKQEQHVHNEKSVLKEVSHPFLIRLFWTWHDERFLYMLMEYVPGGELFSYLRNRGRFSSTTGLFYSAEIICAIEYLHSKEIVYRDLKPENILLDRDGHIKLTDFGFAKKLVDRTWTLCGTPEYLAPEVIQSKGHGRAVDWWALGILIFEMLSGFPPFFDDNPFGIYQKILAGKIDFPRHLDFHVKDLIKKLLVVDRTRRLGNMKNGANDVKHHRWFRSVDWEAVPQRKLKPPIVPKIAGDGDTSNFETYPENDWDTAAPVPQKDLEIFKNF

Chain of Tyrosine-protein kinase Lyn (P07948 2-512 limits assumed): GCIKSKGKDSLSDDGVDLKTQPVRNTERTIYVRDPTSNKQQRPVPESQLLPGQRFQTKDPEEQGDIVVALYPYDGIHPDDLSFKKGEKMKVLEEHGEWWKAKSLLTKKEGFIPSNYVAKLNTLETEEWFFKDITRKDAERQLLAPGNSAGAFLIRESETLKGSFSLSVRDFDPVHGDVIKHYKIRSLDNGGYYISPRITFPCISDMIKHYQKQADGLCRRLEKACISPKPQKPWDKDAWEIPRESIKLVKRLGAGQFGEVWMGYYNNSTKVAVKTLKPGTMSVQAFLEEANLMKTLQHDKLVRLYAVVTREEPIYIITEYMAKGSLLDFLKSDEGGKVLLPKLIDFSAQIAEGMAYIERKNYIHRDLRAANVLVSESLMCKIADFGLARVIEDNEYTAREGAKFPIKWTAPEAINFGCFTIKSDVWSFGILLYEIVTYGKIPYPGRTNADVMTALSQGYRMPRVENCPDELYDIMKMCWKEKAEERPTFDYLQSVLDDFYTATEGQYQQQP
Chain of Dual specificity mitogen-activated protein kinase kinase 2 (Homo sapiens) (P36507 whole entry): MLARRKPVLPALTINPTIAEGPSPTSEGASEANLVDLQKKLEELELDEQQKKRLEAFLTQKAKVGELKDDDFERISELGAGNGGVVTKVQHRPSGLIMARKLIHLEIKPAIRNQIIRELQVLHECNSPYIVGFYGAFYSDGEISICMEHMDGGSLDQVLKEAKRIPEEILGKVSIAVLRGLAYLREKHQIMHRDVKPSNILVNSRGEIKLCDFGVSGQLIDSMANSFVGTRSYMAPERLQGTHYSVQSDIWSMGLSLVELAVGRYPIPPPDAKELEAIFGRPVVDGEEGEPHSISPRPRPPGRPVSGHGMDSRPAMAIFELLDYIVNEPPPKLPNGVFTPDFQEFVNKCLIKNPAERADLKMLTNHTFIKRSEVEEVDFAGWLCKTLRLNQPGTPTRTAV
Chain of Mast/stem cell growth factor receptor Kit (P10721 whole entry): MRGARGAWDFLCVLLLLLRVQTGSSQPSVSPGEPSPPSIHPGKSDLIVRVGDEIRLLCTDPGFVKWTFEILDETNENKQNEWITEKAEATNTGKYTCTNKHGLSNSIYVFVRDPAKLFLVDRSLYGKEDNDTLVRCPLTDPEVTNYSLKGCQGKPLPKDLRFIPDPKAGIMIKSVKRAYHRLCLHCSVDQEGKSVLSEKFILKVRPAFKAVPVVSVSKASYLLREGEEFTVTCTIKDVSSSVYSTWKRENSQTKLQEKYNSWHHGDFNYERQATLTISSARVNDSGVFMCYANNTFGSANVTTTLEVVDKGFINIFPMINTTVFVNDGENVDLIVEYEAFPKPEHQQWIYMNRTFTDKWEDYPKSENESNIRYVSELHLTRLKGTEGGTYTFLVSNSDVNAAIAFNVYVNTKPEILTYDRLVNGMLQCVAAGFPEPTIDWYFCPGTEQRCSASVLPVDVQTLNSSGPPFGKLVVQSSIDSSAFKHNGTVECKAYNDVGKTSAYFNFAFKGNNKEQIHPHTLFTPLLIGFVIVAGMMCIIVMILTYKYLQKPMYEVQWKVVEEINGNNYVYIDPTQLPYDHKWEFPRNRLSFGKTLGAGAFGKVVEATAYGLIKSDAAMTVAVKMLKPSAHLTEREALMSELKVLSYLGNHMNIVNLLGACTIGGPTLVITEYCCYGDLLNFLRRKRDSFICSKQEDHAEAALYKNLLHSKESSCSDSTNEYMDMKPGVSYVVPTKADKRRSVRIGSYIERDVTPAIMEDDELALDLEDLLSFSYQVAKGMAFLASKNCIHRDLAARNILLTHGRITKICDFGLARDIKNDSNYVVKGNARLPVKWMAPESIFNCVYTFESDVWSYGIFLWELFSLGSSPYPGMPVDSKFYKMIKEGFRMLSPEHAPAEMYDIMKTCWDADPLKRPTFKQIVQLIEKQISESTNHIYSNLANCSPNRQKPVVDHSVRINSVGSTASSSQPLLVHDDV

COc1cc(N(C)c2ccnc3ccc(C(F)(F)F)cc23)cc(OC)c1OC
% binding [1]: 73%

Cn1cc(-n2cnc3c(NCc4nc5cc(Cl)c(Cl)cc5[nH]4)nc(N4CCOCC4)nc32)cn1
% of inhibition [2]: -1.07%

O=C(NOC[C@H](O)CO)c1ccc(F)c(F)c1Nc1ccc(I)cc1F
% of control [3]: 100%

Cc1cc([C@@H](C)Nc2ccccc2C(=O)O)c2nc(N3CCOCC3)cc(=O)n2c1 [AZD-6482]
% of control [4]: 99%

Cc1cnc(Nc2ccc(F)cc2Cl)nc1-c1c[nH]c(C(=O)N[C@H](CO)c2cccc(Cl)c2)c1
% of inhibition [5]: 3%

COc1cc(Nc2nc(C)cc(-c3cnn4nc(OC)ccc34)n2)cc(C(F)(F)F)c1
% of control [6]: 75%

C=CC(=O)Nc1cccc(C(=O)Nc2ccc(Nc3cc(-c4[nH]c(SC)nc4C)ccn3)cc2)c1
% of control ([7]; at 1 µM): 87% | % of control ([7]; at 5 µM): 61% | % of control ([8]; at 1 µM): 88% | % of control ([8]; at 5 µM): 89% | % of control ([9]; at 1 µM): 96% | % of control ([9]; at 5 µM): 71% | % of control ([10]; at 1 µM): 93% | % of control ([10]; at 5 µM): 71% | % of control ([11]; at 1 µM): 91% | % of control ([11]; at 5 µM): 82% | % of control ([12]; at 1 µM): 85% | % of control ([12]; at 5 µM): 64% | % of control ([13]; at 1 µM): 94% | % of control ([13]; at 5 µM): 88% | % of control ([14]; at 1 µM): 96% | % of control ([14]; at 5 µM): 65% | % of control ([15]; at 1 µM): 102% | % of control ([15]; at 5 µM): 82%

CCN(CC)CCCCNc1ncc2cc(-c3cc(OC)cc(OC)c3)c(NC(=O)NC(C)(C)C)nc2n1
% of control [16]: 100%
